Source: article PMC8119466, “A screen of FDA-approved drugs identifies inhibitors of protein tyrosine phosphatase 4A3 (PTP4A3 or PRL-3)” (Scientific Reports, 2021)
Counter-ions that a name gives are not always drawn. Like-named read-outs stand apart in the source and are kept apart here.

Legend:
Format in all cases: biochemical
recombinant PRL-2 = molecular target: T1, recombinant PRL-2 (Homo sapiens, UniProt Q12974); experiment: In vitro phosphatase assay (DiFMUP hydrolysis), PRL-2;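 also: PRL-2 activity read as DiFMUP hydrolysis after 20 min at room temperature with drug, enzyme first pre-reduced at 4 °C for 20 min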
T1 construct: 6xHis (N, cleaved yes); made in house; host or cells: E. coli One Shot BL21 Star
T1 sequence (Q12974 1-167): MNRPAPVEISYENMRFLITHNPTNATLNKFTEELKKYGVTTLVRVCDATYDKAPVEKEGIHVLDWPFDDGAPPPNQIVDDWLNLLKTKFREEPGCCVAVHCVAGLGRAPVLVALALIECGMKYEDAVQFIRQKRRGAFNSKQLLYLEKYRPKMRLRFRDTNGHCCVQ

recombinant PRL-3 = molecular target: T2, recombinant PRL-3 (Homo sapiens, UniProt O75365); experiment: In vitro phosphatase assay (DiFMUP hydrolysis), PRL-3; also: test concentration or dose not given here
T2 construct: 6xHis (N, cleaved yes); made in house; host or cells: E. coli One Shot BL21 Star
T2 sequence (O75365 whole entry): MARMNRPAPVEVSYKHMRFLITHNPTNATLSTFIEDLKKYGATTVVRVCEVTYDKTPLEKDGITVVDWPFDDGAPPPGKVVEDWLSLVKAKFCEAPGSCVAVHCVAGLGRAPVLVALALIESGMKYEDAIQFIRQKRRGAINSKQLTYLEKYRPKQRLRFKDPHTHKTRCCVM

recombinant PRL-1 = molecular target: T3, recombinant PRL-1 (Homo sapiens, UniProt Q93096); experiment: In vitro phosphatase assay (DiFMUP hydrolysis), PRL-1; also: test concentration or dose not given here
T3 construct: 6xHis (N, cleaved yes); made in house; host or cells: E. coli One Shot BL21 Star
T3 sequence (Q93096 1-173): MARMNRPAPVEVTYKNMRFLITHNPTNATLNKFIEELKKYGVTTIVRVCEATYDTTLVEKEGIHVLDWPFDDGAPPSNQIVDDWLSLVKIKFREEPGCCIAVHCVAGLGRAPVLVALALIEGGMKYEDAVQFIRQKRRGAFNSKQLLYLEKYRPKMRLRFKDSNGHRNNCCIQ

[1] = FDA-approved drug screen, compared to DMSO
[2] = FDA-approved drug screen, activity compared to DMSO

| Compound | % Phosphatase Activity (compared to DMSO) PRL-2 (recombinant PRL-2; [1]) [%] | % Phosphatase Activity (compared to DMSO) PRL-3 (recombinant PRL-3; [1]) [%] | % Phosphatase Activity (compared to DMSO) PRL-1 (recombinant PRL-1; [1]) [%] | also measured |
| --- | --- | --- | --- | --- |
| C=CC(=O)Nc1cccc(Nc2nc(Nc3ccc(N4CCN(C(C)=O)CC4)cc3OC)ncc2C(F)(F)F)c1 [CO-1686 (AVL-301)] | 82 | 98 | 93 |  |
| Cc1cc(C)nc(NS(=O)(=O)c2ccc(N)cc2)n1 [Sulfamethazine] |  |  |  | % Phosphatase Activity (compared to DMSO) PRL-2 (recombinant PRL-2; [2]): 105%; % Phosphatase Activity (compared to DMSO) PRL-3 (recombinant PRL-3; [2]): 82%; % Phosphatase Activity (compared to DMSO) PRL-1 (recombinant PRL-1; [2]): 108% |
| [H]/N=C(/N)NS(=O)(=O)c1ccc(N)cc1 [Sulfaguanidine] |  |  |  | % Phosphatase Activity (compared to DMSO) PRL-2 (recombinant PRL-2; [2]): 90%; % Phosphatase Activity (compared to DMSO) PRL-3 (recombinant PRL-3; [2]): 77%; % Phosphatase Activity (compared to DMSO) PRL-1 (recombinant PRL-1; [2]): 97% |
| CC1=NS(=O)(=O)c2cc(Cl)ccc2N1 [Diazoxide] | 94 | 89 | 99 |  |
| CC1(C)CCC(CN2CCN(c3ccc(C(=O)NS(=O)(=O)c4ccc(NCC5CCOCC5)c([N+](=O)[O-])c4)c(Oc4cnc5[nH]ccc5c4)c3)CC2)=C(c2ccc(Cl)cc2)C1 [ABT-199 (GDC-0199)] | 30 | 78 | 68 |  |
| Clc1ccc(C(Cn2ccnc2)OCc2ccc(Sc3ccccc3)cc2)c(Cl)c1 (stereo not drawn) [Fenticonazole Nitrate] | 117 | 110 | 107 |  |
| O=C(C1CCCCC1)N1CC(=O)N2CCc3ccccc3C2C1 (stereo not drawn) [Praziquantel] | 88 | 73 | 102 |  |
| CC(C)CN(C[C@@H](O)[C@H](Cc1ccccc1)NC(=O)O[C@H]1CO[C@H]2OCC[C@H]21)S(=O)(=O)c1ccc(N)cc1.CCO [Darunavir Ethanolate] | 81 | 80 | 99 |  |
| CN(C)C(=N)N=C(N)N [Metformin HCl] | 78 | 87 | 102 |  |
| CC(C)c1c(C(=O)Nc2ccccc2)c(-c2ccccc2)c(-c2ccc(F)cc2)n1CC[C@@H](O)C[C@@H](O)CC(=O)O [Atorvastatin Calcium] | 87 | 74 | 100 |  |
| CNC(=O)c1ccccc1Sc1ccc2c(/C=C/c3ccccn3)n[nH]c2c1 [Axitinib] | 164 | 96 | 102 |  |
| CCOC(=O)c1ccc(N)cc1 [Benzocaine] | 98 | 84 | 87 |  |
| NC(=O)C1CCCc2c1[nH]c1ccc(Cl)cc21 (stereo not drawn) [EX 527 (Selisistat)] | 106 | 84 | 99 |  |
| C[C@H](Nc1ncnc2nc[nH]c12)c1cc2cccc(Cl)c2c(=O)n1-c1ccccc1 [IPI-145 (INK1197)] | 88 | 97 | 107 |  |
| C[C@]12CC[C@H]3[C@@H](CCC4=CC(=O)CC[C@@H]43)[C@@H]1CC[C@@H]2O [Nandrolone] |  |  |  | % Phosphatase Activity (compared to DMSO) PRL-2 (recombinant PRL-2): 93%; % Phosphatase Activity (compared to DMSO) PRL-3 (recombinant PRL-3): 78%; % Phosphatase Activity (compared to DMSO) PRL-1 (recombinant PRL-1): 93% |
| COc1ccc(-n2nc(C(N)=O)c3c2C(=O)N(c2ccc(N4CCCCC4=O)cc2)CC3)cc1 [Apixaban] | 132 | 80 | 102 |  |
| CC1(C)CCC(c2ccc(Cl)cc2)=C(CN2CCN(c3ccc(C(=O)NS(=O)(=O)c4ccc(N[C@H](CCN5CCOCC5)CSc5ccccc5)c(S(=O)(=O)C(F)(F)F)c4)cc3)CC2)C1 [ABT-263 (Navitoclax)] | 75 | 81 | 90 |  |
| CC[C@H](C)C(=O)O[C@H]1C[C@@H](C)C=C2C=C[C@H](C)[C@H](CC[C@@H]3C[C@@H](O)CC(=O)O3)[C@H]21 [Lovastatin] | 93 | 87 | 89 |  |
| OCCOc1ccc(/C(=C(/CCCl)c2ccccc2)c2ccccc2)cc1 [Ospemifene] |  |  |  | % Phosphatase Activity (compared to DMSO) PRL-2 (recombinant PRL-2): 109%; % Phosphatase Activity (compared to DMSO) PRL-3 (recombinant PRL-3): 81%; % Phosphatase Activity (compared to DMSO) PRL-1 (recombinant PRL-1): 96% |
